From PubChem BioAssay (NCI)
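GI50: concentration for 50% inhibition of growth. TGI denotes the concentration required for complete inhibition of growth.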

What was measured:
Test in all cases: growth of human tumour cells (NCI), 384-well format
HOP-92 NSCLC = system: HOP-92 NSCLC
UO-31 renal = system: UO-31 renal
SNB-75 CNS = system: SNB-75 CNS
OVCAR-5 ovarian = system: OVCAR-5 ovarian
M14 melanoma = system: M14 melanoma
HCT-15 colon = system: HCT-15 colon
CAKI-1 renal = system: CAKI-1 renal
IGROV1 ovarian = system: IGROV1 ovarian
NCI/ADR-RES ovarian = system: NCI/ADR-RES ovarian
MOLT-4 leukemia = system: MOLT-4 leukemia
LOX IMVI melanoma = system: LOX IMVI melanoma
MDA-MB-435 melanoma = system: MDA-MB-435 melanoma
ACHN renal = system: ACHN renal
A549 NSCLC = system: A549 NSCLC
NCI-H460 NSCLC = system: NCI-H460 NSCLC
SK-OV-3 ovarian = system: SK-OV-3 ovarian
OVCAR-4 ovarian = system: OVCAR-4 ovarian
K-562 leukemia = system: K-562 leukemia
MDA-MB-231 breast = system: MDA-MB-231 breast
NCI-H226 lung = system: NCI-H226 lung
NCI-H322M lung = system: NCI-H322M lung
SK-MEL-28 melanoma = system: SK-MEL-28 melanoma
SK-MEL-5 melanoma = system: SK-MEL-5 melanoma
EKVX NSCLC = system: EKVX NSCLC
T-47D breast = system: T-47D breast
OVCAR-3 ovarian = system: OVCAR-3 ovarian
SK-MEL-2 melanoma = system: SK-MEL-2 melanoma
SR leukemia = system: SR leukemia
HCT-116 colon = system: HCT-116 colon
TK-10 renal = system: TK-10 renal
RXF 393 renal = system: RXF 393 renal
U251 glioblastoma = system: U251 glioblastoma
KM12 colon = system: KM12 colon
786-0 renal = system: 786-0 renal
NCI-H522 lung = system: NCI-H522 lung
DU-145 prostate = system: DU-145 prostate
UACC-257 melanoma = system: UACC-257 melanoma
SN12C renal = system: SN12C renal
COLO 205 colon = system: COLO 205 colon
SF-539 CNS = system: SF-539 CNS
MCF7 breast = system: MCF7 breast
HT29 colon = system: HT29 colon
HOP-62 NSCLC = system: HOP-62 NSCLC
HS 578T breast = system: HS 578T breast
NCI-H23 lung = system: NCI-H23 lung
MDA-MB-468 breast = system: MDA-MB-468 breast
SF-295 CNS = system: SF-295 CNS
SF-268 CNS = system: SF-268 CNS
MALME-3M melanoma = system: MALME-3M melanoma
RPMI-8226 leukemia = system: RPMI-8226 leukemia
SNB-19 CNS = system: SNB-19 CNS
HL-60(TB) leukemia = system: HL-60(TB) leukemia
A498 renal = system: A498 renal
UACC-62 melanoma = system: UACC-62 melanoma
HCC-2998 colon = system: HCC-2998 colon
PC-3 prostate = system: PC-3 prostate
BT-549 breast = system: BT-549 breast
SW-620 colon = system: SW-620 colon

O=C(c1ccc(/C=C/c2n[nH]c3ccccc23)cc1)N1CCNCC1
GI50 (HOP-92 NSCLC): 2.32 µM | TGI (HOP-92 NSCLC): 11 µM | GI50 (UO-31 renal): 2.69 µM | TGI (UO-31 renal): 17.2 µM | GI50 (SNB-75 CNS): 3.4 µM | TGI (SNB-75 CNS): 9.95 µM | GI50 (OVCAR-5 ovarian): 3.48 µM | TGI (OVCAR-5 ovarian): > 100 µM | GI50 (M14 melanoma): 4.3 µM | TGI (M14 melanoma): 17 µM | GI50 (HCT-15 colon): 3.41 µM | TGI (HCT-15 colon): 18.9 µM | GI50 (CAKI-1 renal): 3.37 µM | TGI (CAKI-1 renal): 16.4 µM | GI50 (IGROV1 ovarian): 4.66 µM | TGI (IGROV1 ovarian): 18.2 µM | GI50 (NCI/ADR-RES ovarian): 13.8 µM | TGI (NCI/ADR-RES ovarian): 26.9 µM | GI50 (MOLT-4 leukemia): 0.252 µM | TGI (MOLT-4 leukemia): 1.27 µM | GI50 (LOX IMVI melanoma): 2.99 µM | TGI (LOX IMVI melanoma): 10.8 µM | GI50 (MDA-MB-435 melanoma): 2.01 µM | TGI (MDA-MB-435 melanoma): 13.3 µM | GI50 (ACHN renal): 4.29 µM | TGI (ACHN renal): 18.3 µM | GI50 (A549 NSCLC): 1.96 µM | TGI (A549 NSCLC): 19.9 µM | GI50 (NCI-H460 NSCLC): 0.543 µM | TGI (NCI-H460 NSCLC): 10.9 µM | GI50 (SK-OV-3 ovarian): 7.59 µM | TGI (SK-OV-3 ovarian): 21 µM | GI50 (OVCAR-4 ovarian): 21.7 µM | TGI (OVCAR-4 ovarian): 37.5 µM | GI50 (K-562 leukemia): 0.214 µM | TGI (K-562 leukemia): 1.08 µM | GI50 (MDA-MB-231 breast): 3.41 µM | TGI (MDA-MB-231 breast): 17.9 µM | GI50 (NCI-H226 lung): 1.32 µM | TGI (NCI-H226 lung): 4.89 µM | GI50 (NCI-H322M lung): 11.7 µM | TGI (NCI-H322M lung): 27.8 µM | GI50 (SK-MEL-28 melanoma): 11.7 µM | TGI (SK-MEL-28 melanoma): 24 µM | GI50 (SK-MEL-5 melanoma): 5.38 µM | TGI (SK-MEL-5 melanoma): 19.4 µM | GI50 (EKVX NSCLC): 3.23 µM | TGI (EKVX NSCLC): 14.7 µM | GI50 (T-47D breast): 17.7 µM | TGI (T-47D breast): 31.9 µM | GI50 (OVCAR-3 ovarian): 11.6 µM | TGI (OVCAR-3 ovarian): 24.5 µM | GI50 (SK-MEL-2 melanoma): 14.5 µM | TGI (SK-MEL-2 melanoma): 27.7 µM | GI50 (SR leukemia): 0.18 µM | TGI (SR leukemia): 0.32 µM | GI50 (HCT-116 colon): 1.77 µM | TGI (HCT-116 colon): 18.6 µM | GI50 (TK-10 renal): 4.91 µM | TGI (TK-10 renal): 22.7 µM | GI50 (RXF 393 renal): 6.96 µM | TGI (RXF 393 renal): 19.7 µM | GI50 (U251 glioblastoma): 11.2 µM | TGI (U251 glioblastoma): 23.7 µM | GI50 (KM12 colon): 0.118 µM | TGI (KM12 colon): 10.8 µM | GI50 ([…]-0 renal): 10.7 µM | TGI (786-0 renal): 22.7 µM | GI50 (NCI-H522 lung): 0.529 µM | TGI (NCI-H522 lung): 5.51 µM | GI50 (DU-145 prostate): 5.22 µM | TGI (DU-145 prostate): 20.7 µM | GI50 (UACC-257 melanoma): 5.94 µM | TGI (UACC-257 melanoma): 17.8 µM | GI50 (SN12C renal): 1.88 µM | TGI (SN12C renal): 10.6 µM | GI50 (COLO 205 colon): 0.635 µM | TGI (COLO 205 colon): 3.89 µM | GI50 (SF-539 CNS): 1.53 µM | TGI (SF-539 CNS): 5.75 µM | GI50 (MCF7 breast): 2.9 µM | TGI (MCF7 breast): 16.3 µM | GI50 (HT29 colon): 3.1 µM | TGI (HT29 colon): 14.6 µM | GI50 (HOP-62 NSCLC): 2.32 µM | TGI (HOP-62 NSCLC): 16.5 µM | GI50 (HS 578T breast): 2.47 µM | TGI (HS 578T breast): 7.17 µM | GI50 (NCI-H23 lung): 2.69 µM | TGI (NCI-H23 lung): 13.6 µM | GI50 (MDA-MB-468 breast): 1.07 µM | TGI (MDA-MB-468 breast): 16.6 µM | GI50 (SF-295 CNS): 2.12 µM | TGI (SF-295 CNS): 17.3 µM | GI50 (SF-268 CNS): 4.18 µM | TGI (SF-268 CNS): 19.5 µM | GI50 (MALME-3M melanoma): 2.7 µM | TGI (MALME-3M melanoma): 10.8 µM | GI50 (RPMI-8226 leukemia): 1.17 µM | TGI (RPMI-8226 leukemia): 11.1 µM | GI50 (SNB-19 CNS): 12.1 µM | TGI (SNB-19 CNS): 27.7 µM | GI50 (HL-60(TB) leukemia): 0.416 µM | TGI (HL-60(TB) leukemia): 15 µM | GI50 (A498 renal): 13.2 µM | TGI (A498 renal): 26 µM | GI50 (UACC-62 melanoma): 7.66 µM | TGI (UACC-62 melanoma): 20.8 µM | GI50 (HCC-2998 colon): 11 µM | TGI (HCC-2998 colon): 27.4 µM | GI50 (PC-3 prostate): 5.28 µM | TGI (PC-3 prostate): 21.2 µM | GI50 (BT-549 breast): 0.597 µM | TGI (BT-549 breast): 2.29 µM | GI50 (SW-620 colon): 3.1 µM | TGI (SW-620 colon): 14.1 µM
